According to PubChem BioAssay AID330 (DTP/NCI, 2004):
“And” between values parts separate entries of the source, which are not always exact repeats. Equal entries are not always repeated. Toxic doses and inconclusive results are not listed. Rule for the calls: active = survival T/C of 150% or more; inactive = T/C below 125% in these data.

Tested on: P388 leukemia ip, CD2F1 mice, survival T/C
Test: NCI In Vivo Anticancer Drug Screen. Data for tumor model P388 Leukemia (intraperitoneal) in CD2F1 (CDF1) mice
Conditions: endpoint: median survival time, higher = longer survival
In short: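 Mice carrying the transplanted tumor received test compound or vehicle. Survival was recorded in each group, and the value is the treated-group measurement divided by that of the vehicle-treated control group.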

[1] = dose: 50.0 mg/kg/injection, schedule: Q01DX005 (ip), vehicle: saline with Tween-80
[2] = dose: 100.0 mg/kg/injection, schedule: Q01DX005 (ip), vehicle: saline with Tween-80
[3] = dose: 60.0 mg/kg/injection, schedule: Q01DX005 (ip), vehicle: saline with Tween-80
[4] = dose: 120.0 mg/kg/injection, schedule: Q01DX005 (ip), vehicle: saline with Tween-80
[5] = dose: 240.0 mg/kg/injection, schedule: Q01DX005 (ip), vehicle: saline with Tween-80
[6] = dose: 12.5 mg/kg/injection, schedule: Q01DX005 (ip), vehicle: saline with Tween-80
[7] = dose: 25.0 mg/kg/injection, schedule: Q01DX005 (ip), vehicle: saline with Tween-80
[8] = dose: 50.0 mg/kg/injection, schedule: Q01DX009 (ip), vehicle: Klucel (hydroxypropylcellulose) (HPC)
[9] = dose: 12.5 mg/kg/injection, schedule: Q01DX009 (ip), vehicle: saline with Tween-80
[10] = dose: 50.0 mg/kg/injection, schedule: Q01DX009 (ip), vehicle: saline with Tween-80
[11] = dose: 100.0 mg/kg/injection, schedule: Q01DX009 (ip), vehicle: saline with Tween-80
[12] = dose: 100.0 mg/kg/injection, schedule: Q04DX002 (ip), vehicle: saline with Tween-80
[13] = dose: 200.0 mg/kg/injection, schedule: Q04DX002 (ip), vehicle: saline with Tween-80
[14] = dose: 200.0 mg/kg/injection, schedule: Q01DX009 (ip), vehicle: saline with Tween-80

Measured: T/C

CCN(CC)CCN1CC(=O)N2Cc3ccccc3CN2C(=O)C1
inactive: [1] 101 % of control | [2] 104 % of control

C/C(CCCC(C)(C)C(=O)O)=N\NC(N)=O
inactive: [3] 100 % of control | [4] 94 % of control | [5] 97 % of control

Cn1c(O)c(N=O)c(=O)[nH]c1=S
inactive: dose: 12.5 mg/kg/injection, schedule: Q04DX002 (ip), vehicle: saline 101 % of control | dose: 25.0 mg/kg/injection, schedule: Q04DX002 (ip), vehicle: saline 103 % of control

CCC/C(=N\NC(=S)N(C)C)c1ccccn1
inactive: [6] 103 % of control | [7] 107 % of control | [1] 115 % of control and 117 % of control

COc1ccc(S(=O)(=O)NC(=O)c2ccccc2)cc1
inactive: dose: 50.0 mg/kg/injection, schedule: Q04DX003 (ip), vehicle: saline 103 % of control | dose: 100.0 mg/kg/injection, schedule: Q04DX003 (ip), vehicle: saline 106 % of control and 97 % of control | dose: 200.0 mg/kg/injection, schedule: Q04DX003 (ip), vehicle: saline 98 % of control and 104 % of control | dose: 400.0 mg/kg/injection, schedule: Q04DX003 (ip), vehicle: saline 101 % of control

COc1c(O)c(OC)c2oc3ccccc3c(=O)c2c1OC
inactive: dose: 2.5 mg/kg/injection, schedule: Q01DX009 (ip), vehicle: saline + alcohol 100 % of control | dose: 5.0 mg/kg/injection, schedule: Q01DX009 (ip), vehicle: saline + alcohol 101 % of control | dose: 10.0 mg/kg/injection, schedule: Q01DX009 (ip), vehicle: saline + alcohol 100 % of control

N/N=C(/N)[Se]
inactive: dose: 6.25 mg/kg/injection, schedule: Q01DX009 (ip), vehicle: saline 101 % of control | dose: 12.5 mg/kg/injection, schedule: Q01DX009 (ip), vehicle: saline 90 % of control

O=C(OC1(c2nccc3ccccc23)CCNCC1)c1ccccc1
inactive: dose: 12.5 mg/kg/injection, schedule: Q01DX005 (ip), vehicle: Klucel (hydroxypropylcellulose) (HPC) 111 % of control | dose: 25.0 mg/kg/injection, schedule: Q01DX005 (ip), vehicle: Klucel (hydroxypropylcellulose) (HPC) 109 % of control | dose: 50.0 mg/kg/injection, schedule: Q01DX005 (ip), vehicle: Klucel (hydroxypropylcellulose) (HPC) 103 % of control and 104 % of control

COc1ccc(CCNc2ccc(NCCc3ccc(OC)c(OC)c3)c3c2C(=O)c2ccccc2C3=O)cc1OC
inactive: dose: 25.0 mg/kg/injection, schedule: Q01DX009 (ip), vehicle: other 88 % of control | dose: 50.0 mg/kg/injection, schedule: Q01DX009 (ip), vehicle: other 88 % of control | dose: 200.0 mg/kg/injection, schedule: Q01DX009 (ip), vehicle: other 101 % of control | dose: 400.0 mg/kg/injection, schedule: Q01DX009 (ip), vehicle: other 91 % of control

C/C=C/c1nn(-c2ccccc2)c2c1C(=O)CC(C)O2 (configuration not stated)
inactive: [3] 96 % of control | [4] 95 % of control | [5] 96 % of control

COc1cc(C2c3cc4c(cc3OC(C)(N3CCCC3)C2C)OCO4)cc(OC)c1OC (configuration not stated)
inactive: dose: 60.0 mg/kg/injection, schedule: Q01DX005 (ip), vehicle: Klucel (hydroxypropylcellulose) (HPC) 100 % of control | dose: 120.0 mg/kg/injection, schedule: Q01DX005 (ip), vehicle: Klucel (hydroxypropylcellulose) (HPC) 102 % of control | dose: 240.0 mg/kg/injection, schedule: Q01DX005 (ip), vehicle: Klucel (hydroxypropylcellulose) (HPC) 105 % of control

NS(=O)(=O)c1ccc(NC(=O)CCCCl)cc1
inactive: [8] 100 % of control | dose: 100.0 mg/kg/injection, schedule: Q01DX009 (ip), vehicle: Klucel (hydroxypropylcellulose) (HPC) 94 % of control | dose: 200.0 mg/kg/injection, schedule: Q01DX009 (ip), vehicle: Klucel (hydroxypropylcellulose) (HPC) 86 % of control

O=[N+]([O-])c1ccc2c(ccc3sc4ccccc4[n+]32)c1
inactive: dose: 6.25 mg/kg/injection, schedule: Q01DX005 (ip), vehicle: saline with Tween-80 95 % of control | [6] 108 % of control | [7] 111 % of control | [1] 112 % of control

O=C(NC(Cc1ccccc1)C(=O)O)c1cccnc1 (configuration not stated)
inactive: dose: 25.0 mg/kg/injection, schedule: Q04DX002 (ip), vehicle: Klucel (hydroxypropylcellulose) (HPC) 100 % of control | dose: 52.0 mg/kg/injection, schedule: Q04DX002 (ip), vehicle: Klucel (hydroxypropylcellulose) (HPC) 102 % of control | dose: 100.0 mg/kg/injection, schedule: Q04DX002 (ip), vehicle: Klucel (hydroxypropylcellulose) (HPC) 96 % of control | dose: 200.0 mg/kg/injection, schedule: Q04DX002 (ip), vehicle: Klucel (hydroxypropylcellulose) (HPC) 100 % of control

O[C@]12CC=CC[C@]1(O)CC(N1CCCCC1)C2
inactive: [9] 100 % of control | dose: 25.0 mg/kg/injection, schedule: Q01DX009 (ip), vehicle: saline with Tween-80 120 % of control and 93 % of control | [10] 100 % of control and 111 % of control | [11] 93 % of control

CC1C(=O)C2(C(=O)O)CC1CCC2C12C=CC(=O)C(C)(C)C1C(=O)OC2 (configuration not stated)
inactive: dose: 50.0 mg/kg/injection, schedule: Q04DX002 (ip), vehicle: saline with Tween-80 100 % of control | [12] 95 % of control | [13] 91 % of control

CC(C)(C)OC(=O)NC(CCCCNC(=O)C(F)(F)F)C(=O)ON1C(=O)CCC1=O (configuration not stated)
inactive: [10] 102 % of control | [11] 99 % of control | [14] 106 % of control

O=C(Nc1ccccc1)Oc1cccc(/C=N/S(=O)(=O)c2cccc([N+](=O)[O-])c2)c1
inactive: [10] 93 % of control | [11] 97 % of control | [14] 98 % of control

CC(C)=C/C(C)=N/NC(N)=O
inactive: dose: 12.5 mg/kg/injection, schedule: Q04DX003 (ip), vehicle: saline with Tween-80 98 % of control | dose: 25.0 mg/kg/injection, schedule: Q04DX003 (ip), vehicle: saline with Tween-80 94 % of control | dose: 50.0 mg/kg/injection, schedule: Q04DX003 (ip), vehicle: saline with Tween-80 91 % of control | dose: 100.0 mg/kg/injection, schedule: Q04DX003 (ip), vehicle: saline with Tween-80 94 % of control

O=C1NC2(CCCCC2)C(=O)N1CO
inactive: [7] 101 % of control and 109 % of control | [1] 100 % of control and 101 % of control | [2] 103 % of control and 108 % of control | dose: 200.0 mg/kg/injection, schedule: Q01DX005 (ip), vehicle: saline with Tween-80 116 % of control

CCOC(=O)N1C=CC2(C=C1)CCCC2
inactive: dose: 50.0 mg/kg/injection, schedule: Q01DX001 (ip), vehicle: Klucel (hydroxypropylcellulose) (HPC) 108 % of control | dose: 100.0 mg/kg/injection, schedule: Q01DX001 (ip), vehicle: Klucel (hydroxypropylcellulose) (HPC) 102 % of control | dose: 200.0 mg/kg/injection, schedule: Q01DX001 (ip), vehicle: Klucel (hydroxypropylcellulose) (HPC) 102 % of control

CCOP(=O)(O)OCC.[Sc]
inactive: [12] 93 % of control | [13] 101 % of control | dose: 400.0 mg/kg/injection, schedule: Q04DX002 (ip), vehicle: saline with Tween-80 104 % of control

N#CC(Br)(C#N)Cc1ccccc1
inactive: dose: 25.0 mg/kg/injection, schedule: Q01DX009 (ip), vehicle: Klucel (hydroxypropylcellulose) (HPC) 87 % of control | [8] 100 % of control

O=C1c2ccccc2C(=O)c2c1ccc1ccccc21
inactive: [1] 99 % of control | [2] 89 % of control

O=Cc1cc(-c2ccccc2)n(-c2ccccc2)c1-c1ccccc1
inactive: [3] 96 % of control | [4] 98 % of control | [5] 97 % of control

CCOCC(=O)OC
inactive: dose: 50.0 mg/kg/injection, schedule: Q01DX009 (ip), vehicle: saline 97 % of control | dose: 100.0 mg/kg/injection, schedule: Q01DX009 (ip), vehicle: saline 95 % of control | dose: 200.0 mg/kg/injection, schedule: Q01DX009 (ip), vehicle: saline 100 % of control

O=S1(=O)CCC2CCCCC2C1 (configuration not stated)
inactive: dose: 6.25 mg/kg/injection, schedule: Q01DX009 (ip), vehicle: saline with Tween-80 109 % of control | [9] 100 % of control
